{
  "source": "patent US9562085B2",
  "about": "“Antimicrobial peptide” (priority 2013, dated 2017)",
  "note": "Non-standard residues stand in square brackets, D forms with d. Residues, ends and D or L forms follow the SMILES beside them.",
  "data": [
    {"tested_on": "S. aureus JAR", "format": "cell-based", "conditions": "JAR, 2 h", "protocol": "S. aureus JAR is described in Campoccia et al. (Int. J. Artif. Organs, 2008 September; 31(9):841-7).\nFor the in vitro killing assay with P10 variants, S. aureus JAR ([…] CFU/ml) were incubated for 2 hours at 37° C. with various concentrations of the peptides in PBS or in PBS/human plasma (1/1, v/v). […] The LC99.9 is the average value of two independent experiments.", "units": {"LC99.9 (μM) (50% plasma)": "µM", "LC99.9 (μM) (PBS)": "µM"}, "values": [
      {"smiles": "CC[C@H](C)[C@H](NC(=O)[C@H](CCCCN)NC(=O)[C@H](CCCCN)NC(=O)[C@H](Cc1ccc(O)cc1)NC(=O)[C@H](CCC(=O)O)NC(=O)[C@H](CCCNC(=N)N)NC(=O)[C@H](C)NC(=O)[C@H](CC(C)C)NC(C)=O)C(=O)N[C@H](C(=O)N[C@@H](CCC(=O)O)C(=O)N[C@@H](CCCCN)C(=O)N[C@@H](CC(C)C)C(=O)N[C@@H](CCCCN)C(=O)N[C@H](CCCNC(=N)N)C(=O)N[C@@H](Cc1c[nH]c2ccccc12)C(=O)N[C@@H](CC(C)C)C(=O)N[C@@H](CCCNC(=N)N)C(=O)N[C@@H](CCC(N)=O)C(=O)N[C@H](C(=O)N[C@@H](CC(C)C)C(=O)N[C@@H](CCCNC(=N)N)C(=O)N[C@H](C(=O)N[C@@H](CC(C)C)C(=O)N[C@@H](CCCNC(=N)N)C(N)=O)[C@@H](C)O)C(C)C)C(C)C", "note": "[Peptide 1301-14, JLAREYKKIVEKLKrWLRQVLRTLRB] (Ac-LAREYKKIVEKLK[dR]WLRQVLRTLR-NH2)", "LC99.9 (μM) (50% plasma)": 38.4, "LC99.9 (μM) (PBS)": 0.6},
      {"smiles": "CC[C@H](C)[C@H](NC(=O)[C@H](CCCCN)NC(=O)[C@H](CCCCN)NC(=O)[C@H](Cc1ccc(O)cc1)NC(=O)[C@H](CCC(=O)O)NC(=O)[C@H](CCCNC(=N)N)NC(=O)[C@H](C)NC(=O)[C@H](CC(C)C)NC(C)=O)C(=O)N[C@H](C(=O)N[C@@H](CCC(=O)O)C(=O)N[C@@H](CCCCN)C(=O)N[C@@H](CC(C)C)C(=O)N[C@@H](CCCCN)C(=O)N[C@@H](CCCNC(=N)N)C(=O)N[C@H](Cc1c[nH]c2ccccc12)C(=O)N[C@@H](CC(C)C)C(=O)N[C@@H](CCCNC(=N)N)C(=O)N[C@@H](CCC(N)=O)C(=O)N[C@H](C(=O)N[C@@H](CC(C)C)C(=O)N[C@@H](CCCNC(=N)N)C(=O)N[C@H](C(=O)N[C@@H](CC(C)C)C(=O)N[C@@H](CCCNC(=N)N)C(N)=O)[C@@H](C)O)C(C)C)C(C)C", "note": "[Peptide 1301-15, JLAREYKKIVEKLKRwLRQVLRTLRB] (Ac-LAREYKKIVEKLKR[dW]LRQVLRTLR-NH2)", "LC99.9 (μM) (50% plasma)": 38.4, "LC99.9 (μM) (PBS)": 0.4},
      {"smiles": "CC[C@H](C)[C@H](NC(=O)[C@H](CCCCN)NC(=O)[C@H](CCCCN)NC(=O)[C@H](Cc1ccc(O)cc1)NC(=O)[C@H](CCC(=O)O)NC(=O)[C@H](CCCNC(=N)N)NC(=O)[C@H](C)NC(=O)[C@H](CC(C)C)NC(C)=O)C(=O)N[C@H](C(=O)N[C@@H](CCC(=O)O)C(=O)N[C@@H](CCCCN)C(=O)N[C@@H](CC(C)C)C(=O)N[C@@H](CCCCN)C(=O)N[C@@H](CCCNC(=N)N)C(=O)N[C@@H](Cc1c[nH]c2ccccc12)C(=O)N[C@H](CC(C)C)C(=O)N[C@@H](CCCNC(=N)N)C(=O)N[C@@H](CCC(N)=O)C(=O)N[C@H](C(=O)N[C@@H](CC(C)C)C(=O)N[C@@H](CCCNC(=N)N)C(=O)N[C@H](C(=O)N[C@@H](CC(C)C)C(=O)N[C@@H](CCCNC(=N)N)C(N)=O)[C@@H](C)O)C(C)C)C(C)C", "note": "[Peptide 1301-16, JLAREYKKIVEKLKRWlRQVLRTLRB] (Ac-LAREYKKIVEKLKRW[dL]RQVLRTLR-NH2)", "LC99.9 (μM) (50% plasma)": 38.4, "LC99.9 (μM) (PBS)": 0.6},
      {"smiles": "CC[C@H](C)[C@H](NC(=O)[C@H](CCCCN)NC(=O)[C@H](CCCCN)NC(=O)[C@H](Cc1ccc(O)cc1)NC(=O)[C@H](CCC(=O)O)NC(=O)[C@H](CCCNC(=N)N)NC(=O)[C@H](C)NC(=O)[C@H](CC(C)C)NC(C)=O)C(=O)N[C@H](C(=O)N[C@@H](CCC(=O)O)C(=O)N[C@@H](CCCCN)C(=O)N[C@@H](CC(C)C)C(=O)N[C@@H](CCCCN)C(=O)N[C@@H](CCCNC(=N)N)C(=O)N[C@@H](Cc1c[nH]c2ccccc12)C(=O)N[C@@H](CC(C)C)C(=O)N[C@H](CCCNC(=N)N)C(=O)N[C@@H](CCC(N)=O)C(=O)N[C@H](C(=O)N[C@@H](CC(C)C)C(=O)N[C@@H](CCCNC(=N)N)C(=O)N[C@H](C(=O)N[C@@H](CC(C)C)C(=O)N[C@@H](CCCNC(=N)N)C(N)=O)[C@@H](C)O)C(C)C)C(C)C", "note": "[Peptide 1301-17, JLAREYKKIVEKLKRWLrQVLRTLRB] (Ac-LAREYKKIVEKLKRWL[dR]QVLRTLR-NH2)", "LC99.9 (μM) (50% plasma)": 38.4, "LC99.9 (μM) (PBS)": 0.6},
      {"smiles": "CC[C@H](C)[C@H](NC(=O)[C@H](CCCCN)NC(=O)[C@H](CCCCN)NC(=O)[C@H](Cc1ccc(O)cc1)NC(=O)[C@H](CCC(=O)O)NC(=O)[C@H](CCCNC(=N)N)NC(=O)[C@H](C)NC(=O)[C@H](CC(C)C)NC(C)=O)C(=O)N[C@H](C(=O)N[C@@H](CCC(=O)O)C(=O)N[C@@H](CCCCN)C(=O)N[C@@H](CC(C)C)C(=O)N[C@@H](CCCCN)C(=O)N[C@@H](CCCNC(=N)N)C(=O)N[C@@H](Cc1c[nH]c2ccccc12)C(=O)N[C@@H](CC(C)C)C(=O)N[C@@H](CCCNC(=N)N)C(=O)N[C@H](CCC(N)=O)C(=O)N[C@H](C(=O)N[C@@H](CC(C)C)C(=O)N[C@@H](CCCNC(=N)N)C(=O)N[C@H](C(=O)N[C@@H](CC(C)C)C(=O)N[C@@H](CCCNC(=N)N)C(N)=O)[C@@H](C)O)C(C)C)C(C)C", "note": "[Peptide 1301-18, JLAREYKKIVEKLKRWLRqVLRTLRB] (Ac-LAREYKKIVEKLKRWLR[dQ]VLRTLR-NH2)", "LC99.9 (μM) (50% plasma)": 38.4, "LC99.9 (μM) (PBS)": 0.6},
      {"smiles": "CC[C@H](C)[C@H](NC(=O)[C@H](CCCCN)NC(=O)[C@H](CCCCN)NC(=O)[C@H](Cc1ccc(O)cc1)NC(=O)[C@H](CCC(=O)O)NC(=O)[C@H](CCCNC(=N)N)NC(=O)[C@H](C)NC(=O)[C@H](CC(C)C)NC(C)=O)C(=O)N[C@H](C(=O)N[C@@H](CCC(=O)O)C(=O)N[C@@H](CCCCN)C(=O)N[C@@H](CC(C)C)C(=O)N[C@@H](CCCCN)C(=O)N[C@@H](CCCNC(=N)N)C(=O)N[C@@H](Cc1c[nH]c2ccccc12)C(=O)N[C@@H](CC(C)C)C(=O)N[C@@H](CCCNC(=N)N)C(=O)N[C@@H](CCC(N)=O)C(=O)N[C@@H](C(=O)N[C@@H](CC(C)C)C(=O)N[C@@H](CCCNC(=N)N)C(=O)N[C@H](C(=O)N[C@@H](CC(C)C)C(=O)N[C@@H](CCCNC(=N)N)C(N)=O)[C@@H](C)O)C(C)C)C(C)C", "note": "[Peptide 1301-19, JLAREYKKIVEKLKRWLRQvLRTLRB] (Ac-LAREYKKIVEKLKRWLRQ[dV]LRTLR-NH2)", "LC99.9 (μM) (50% plasma)": 32.0, "LC99.9 (μM) (PBS)": 0.6},
      {"smiles": "CC[C@H](C)[C@H](NC(=O)[C@H](CCCCN)NC(=O)[C@H](CCCCN)NC(=O)[C@H](Cc1ccc(O)cc1)NC(=O)[C@H](CCC(=O)O)NC(=O)[C@H](CCCNC(=N)N)NC(=O)[C@H](C)NC(=O)[C@H](CC(C)C)NC(C)=O)C(=O)N[C@H](C(=O)N[C@@H](CCC(=O)O)C(=O)N[C@@H](CCCCN)C(=O)N[C@@H](CC(C)C)C(=O)N[C@@H](CCCCN)C(=O)N[C@@H](CCCNC(=N)N)C(=O)N[C@@H](Cc1c[nH]c2ccccc12)C(=O)N[C@@H](CC(C)C)C(=O)N[C@@H](CCCNC(=N)N)C(=O)N[C@@H](CCC(N)=O)C(=O)N[C@H](C(=O)N[C@H](CC(C)C)C(=O)N[C@@H](CCCNC(=N)N)C(=O)N[C@H](C(=O)N[C@@H](CC(C)C)C(=O)N[C@@H](CCCNC(=N)N)C(N)=O)[C@@H](C)O)C(C)C)C(C)C", "note": "[Peptide 1301-20, JLAREYKKIVEKLKRWLRQVlRTLRB] (Ac-LAREYKKIVEKLKRWLRQV[dL]RTLR-NH2)", "LC99.9 (μM) (50% plasma)": 38.4, "LC99.9 (μM) (PBS)": 0.6}
    ]}
  ]
}
